Results as given in ChEMBL document CHEMBL4308841, “Synthesis, in vitro antiproliferative activity, and kinase inhibitory effects of pyrazole-containing diarylureas and diarylamides” (Eur J Med Chem, 2018).

Legend:
[1] = test system: SNB-75; experiment: Growth inhibition of human SNB75 cells incubated for 48 hrs by sulforhodamine B assay; type: functional, cell-based; conditions: SNB-75, 48 h
[2] = test system: SF-295; experiment: Growth inhibition of human SF295 cells assessed as cell growth at 0.01 uM incubated for 48 hrs by sulforhodamine B assay relative to control; type: functional; conditions: SF-295, 48 h, read-out: Activity
[3] = test system: CAKI-1; experiment: Growth inhibition of human Caki1 cells assessed as cell growth at 0.01 uM incubated for 48 hrs by sulforhodamine B assay relative to control; type: functional; conditions: CAKI-1, 48 h, read-out: Activity
[4] = test system: HCC 2998; experiment: Growth inhibition of human HCC2998 cells assessed as cell growth at 0.1 uM incubated for 48 hrs by sulforhodamine B assay relative to control; type: functional; conditions: HCC 2998, 48 h, read-out: Activity
[5] = test system: CAKI-1; experiment: Growth inhibition of human Caki1 cells assessed as cell growth at 0.1 uM incubated for 48 hrs by sulforhodamine B assay relative to control; type: functional; conditions: CAKI-1, 48 h, read-out: Activity
[6] = test system: SF-539; experiment: Growth inhibition of human SF539 cells assessed as cell growth at 100 uM incubated for 48 hrs by sulforhodamine B assay relative to control; type: functional; conditions: SF-539, 48 h, read-out: Activity
[7] = test system: KM12; experiment: Growth inhibition of human KM12 cells assessed as cell growth at 0.1 uM incubated for 48 hrs by sulforhodamine B assay relative to control; type: functional; conditions: KM12, 48 h, read-out: Activity
[8] = test system: NCI-H322M; experiment: Growth inhibition of human NCI-H322M cells incubated for 48 hrs by sulforhodamine B assay; type: functional, cell-based
[9] = test system: U-251; experiment: Growth inhibition of human U251 cells incubated for 48 hrs by sulforhodamine B assay; type: functional, cell-based; conditions: U-251, 48 h
[10] = test system: Malme-3M; experiment: Growth inhibition of human MALME-3M cells assessed as cell growth at 0.1 uM incubated for 48 hrs by sulforhodamine B assay relative to control; type: functional; conditions: read-out: Activity
[11] = test system: NCI-H460; experiment: Growth inhibition of human NCI-H460 cells assessed as cell growth at 100 uM incubated for 48 hrs by sulforhodamine B assay relative to control; type: functional; conditions: NCI-H460, 48 h, read-out: Activity
[12] = test system: Hs-578T; experiment: Growth inhibition of human Hs578T cells assessed as cell growth at 0.01 uM incubated for 48 hrs by sulforhodamine B assay relative to control; type: functional; conditions: read-out: Activity
[13] = test system: PC-3; experiment: Growth inhibition of human PC3 cells assessed as cell growth at 100 uM incubated for 48 hrs by sulforhodamine B assay relative to control; type: functional; conditions: PC-3, 48 h, read-out: Activity
[14] = test system: HCT-15; experiment: Growth inhibition of human HCT15 cells assessed as cell growth at 0.01 uM incubated for 48 hrs by sulforhodamine B assay relative to control; type: functional; conditions: HCT-15, 48 h, read-out: Activity
[15] = test system: MDA-MB-435; experiment: Growth inhibition of human MDA-MB-435 cells assessed as cell growth at 0.01 uM incubated for 48 hrs by sulforhodamine B assay relative to control; type: functional; conditions: MDA-MB-435, 48 h, read-out: Activity
[16] = test system: SK-MEL-2; experiment: Growth inhibition of human SK-MEL-2 cells assessed as cell growth at 10 uM incubated for 48 hrs by sulforhodamine B assay relative to control; type: functional; conditions: SK-MEL-2, 48 h, read-out: Activity
[17] = test system: UO-31; experiment: Growth inhibition of human UO31 cells incubated for 48 hrs by sulforhodamine B assay; type: functional, cell-based; conditions: UO-31, 48 h
[18] = test system: Malme-3M; experiment: Growth inhibition of human MALME-3M cells assessed as cell growth at 0.01 uM incubated for 48 hrs by sulforhodamine B assay relative to control; type: functional; conditions: read-out: Activity
[19] = test system: MOLT-4; experiment: Growth inhibition of human MOLT4 cells assessed as cell growth at 100 uM incubated for 48 hrs by sulforhodamine B assay relative to control; type: functional; conditions: MOLT-4, 48 h, read-out: Activity
[20] = test system: SK-OV-3; experiment: Growth inhibition of human SKOV3 cells assessed as cell growth at 0.1 uM incubated for 48 hrs by sulforhodamine B assay relative to control; type: functional; conditions: SK-OV-3, 48 h, read-out: Activity
[21] = test system: UACC-62; experiment: Growth inhibition of human UACC62 cells assessed as cell growth at 0.01 uM incubated for 48 hrs by sulforhodamine B assay relative to control; type: functional; conditions: UACC-62, 48 h, read-out: Activity
[22] = test system: NCI-H322M; experiment: Growth inhibition of human NCI-H322M cells assessed as cell growth at 0.01 uM incubated for 48 hrs by sulforhodamine B assay relative to control; type: functional; conditions: read-out: Activity
[23] = test system: Hs-578T; experiment: Growth inhibition of human Hs578T cells assessed as cell growth at 1 uM incubated for 48 hrs by sulforhodamine B assay relative to control; type: functional; conditions: read-out: Activity
[24] = test system: OVCAR-4; experiment: Growth inhibition of human OVCAR4 cells assessed as cell growth at 0.01 uM incubated for 48 hrs by sulforhodamine B assay relative to control; type: functional; conditions: OVCAR-4, 48 h, read-out: Activity
[25] = test system: NCI/ADR-RES; experiment: Growth inhibition of human NCI/ADR-RES cells assessed as cell growth at 1 uM incubated for 48 hrs by sulforhodamine B assay relative to control; type: functional; conditions: read-out: Activity
[26] = test system: 786-0; experiment: Growth inhibition of human 786-0 cells assessed as cell growth at 0.1 uM incubated for 48 hrs by sulforhodamine B assay relative to control; type: functional; conditions: 786-0, 48 h, read-out: Activity
[27] = test system: MDA-MB-231; experiment: Growth inhibition of human MDA-MB-231 cells assessed as cell growth at 100 uM incubated for 48 hrs by sulforhodamine B assay relative to control; type: functional; conditions: MDA-MB-231, 48 h, read-out: Activity
[28] = test system: HOP-62; experiment: Growth inhibition of human HOP62 cells incubated for 48 hrs by sulforhodamine B assay; type: functional, cell-based; conditions: HOP-62, 48 h
[29] = test system: KM12; experiment: Growth inhibition of human KM12 cells assessed as cell growth at 0.01 uM incubated for 48 hrs by sulforhodamine B assay relative to control; type: functional; conditions: KM12, 48 h, read-out: Activity
[30] = test system: U-251; experiment: Growth inhibition of human U251 cells assessed as cell growth at 100 uM incubated for 48 hrs by sulforhodamine B assay relative to control; type: functional; conditions: U-251, 48 h, read-out: Activity
[31] = read-out: LC50 (the source's name)
[32] = read-out: pLC50 (the source's name) (converted)

O=C(Nc1cccc(-n2cc(-c3ccncc3)c(-c3cc(O)cc(Cl)c3)n2)c1)c1ccc(N2CCOCC2)c(C(F)(F)F)c1
GI50 ([1]; read-out: GI50): 0.772 µM | CC50 [1, 31]: > 100 µM | TGI ([1]; read-out: TGI): > 100 µM | GI50 ([1]; read-out: pGI50 (converted)): 0.724 µM | CC50 [1, 32]: > 100 µM | TGI ([1]; read-out: pTGI (converted)): > 100 µM | growth at 0.01 µM [2]: 97% | growth at 0.01 µM [3]: 98% | growth at 0.1 µM [4]: 100% | growth at 0.1 µM [5]: 93% | growth at 100 µM [6]: -50% | growth at 0.1 µM [7]: 105% | GI50 ([8]; read-out: GI50): 2.53 µM | CC50 [8, 31]: > 100 µM | TGI ([8]; read-out: TGI): > 100 µM | GI50 ([8]; read-out: pGI50 (converted)): 2.82 µM | CC50 [8, 32]: > 100 µM | TGI ([8]; read-out: pTGI (converted)): > 100 µM | IC50 [9]: 1.4 µM | GI50 ([9]; read-out: GI50): 1.43 µM | CC50 [9, 31]: 44 µM | TGI ([9]; read-out: TGI): 6.3 µM | GI50 ([9]; read-out: pGI50 (converted)): 1.41 µM | CC50 [9, 32]: 43.7 µM | TGI ([9]; read-out: pTGI (converted)): 6.31 µM | growth at 0.1 µM [10]: 85% | growth at 100 µM [11]: -47% | growth at 0.01 µM [12]: 96% | growth at 100 µM [13]: -8% | growth at 0.01 µM [14]: 91% | growth at 0.01 µM [15]: 96% | growth at 10 µM [16]: 22.9% | IC50 [17]: 1.41 µM | GI50 ([17]; read-out: GI50): 1.41 µM | CC50 [17, 31]: > 100 µM | TGI ([17]; read-out: TGI): 15.5 µM | GI50 ([17]; read-out: pGI50 (converted)): 1.12 µM | CC50 [17, 32]: > 100 µM | TGI ([17]; read-out: pTGI (converted)): 15.5 µM | growth at 0.01 µM [18]: 58% | growth at 100 µM [19]: -20% | growth at 0.1 µM [20]: 102% | growth at 0.01 µM [21]: 96% | growth at 0.01 µM [22]: 56% | growth at 1 µM [23]: 59% | growth at 0.01 µM [24]: 100% | growth at 1 µM [25]: 79% | growth at 0.1 µM [26]: 94% | growth at 100 µM [27]: -58% | GI50 ([28]; read-out: GI50): 3.59 µM | CC50 [28, 31]: > 100 µM | TGI ([28]; read-out: TGI): 58.2 µM | GI50 ([28]; read-out: pGI50 (converted)): 3.55 µM | CC50 [28, 32]: > 100 µM | TGI ([28]; read-out: pTGI (converted)): 58.9 µM | growth at 0.01 µM [29]: 105% | growth at 100 µM [30]: -69%
